{"source": "patent US20040072770A1", "about": "“Methods for specifically inhibiting histone deacetylase-7 and 8” (priority 2002, published 2004)", "key": {"[1]": {"test_system": "A549 cells", "experiment": "Growth inhibition by antisense oligos, A549", "format": "cell-based, human", "conditions": "50 nM, 48 hour, vs cells treated with lipofectin", "procedure": "(§1) For all ex vivo oligo treatment, human A549 human […] carcinoma cells were seeded in 10 cm tissue culture dishes one day prior to oligonucleotide treatment. The cell lines were obtained from the American Type Culture Collection (ATCC) (Manassas, Va.) and were grown under the recommended culture conditions. Before the addition of the oligonucleotides, cells were washed with PBS (phosphate buffered saline). Next, lipofectin transfection reagent (GIBCO BRL Mississauga, Ontario, Calif.), at a concentration of 6.25 μg/ ml, was added to serum free OPTIMEM medium (GIBCO BRL, Rockville, Md.), which was then added to the cells. The oligonucleotides were added directly to the cells (i.e., one oligonucleotide per plate of cells). Mismatched oligonucleotides were used as controls. The same concentration of oligonucleotide (e.g., 50 nM) was used per plate of cells for each oligonucleotide tested.\n(§2) In order to determine the effect of HDAC ODNs on cell growth inhibition and cell death through apoptosis, A549, T24, DuI45, HCT116 cells (ATCC, Manassas, Va.), or HMEC cells (BioWhittaker, Walkersville, Md.) were treated with HDAC ODNs as previously described.\n(§3) For the cell growth inhibition analysis, human cancer or normal cells were treated with 50 nM of paired AS or MM oligos directed against human HDAC-1, HDAC-7 or HDAC-8for up to 96 hours. Cell numbers were counted every day by trypan blue exclusion. Percentage of inhibition was calculated as (100 - AS cell numbers/control cell numbers)%."}, "[2]": {"test_system": "T24 cells", "experiment": "Growth inhibition by antisense oligos, T24", "format": "cell-based, human", "conditions": "50 nM, 48 hour, vs cells treated with lipofectin", "procedure": "as §1, with “tested. […]” for “tested.”\nas §3"}, "[3]": {"test_system": "Du145 cells", "experiment": "Growth inhibition by antisense oligos, Du145", "format": "cell-based, human", "conditions": "50 nM, 48 hour, vs cells treated with lipofectin", "procedure": "as §1, §2, §3"}, "[4]": {"test_system": "MCF-7 cells", "experiment": "Growth inhibition by antisense oligos, MCF-7", "format": "cell-based, human", "conditions": "75 nM treatment for 2 days, vs cells treated with lipofectin", "procedure": "[The procedure below names another cell line; the source lists this cell line under the same test.] as §1, with “tested. […]” for “tested.”\nas §3"}, "[5]": {"test_system": "H446 cells", "experiment": "Growth inhibition by antisense oligos, H446", "format": "cell-based, human", "conditions": "75 nM treatment for 2 days, vs cells treated with lipofectin"}, "[6]": {"test_system": "MDAmb231 cells", "experiment": "Growth inhibition by antisense oligos, MDAmb231", "format": "cell-based, human", "conditions": "50 nM, 48 hour, vs cells treated with lipofectin", "procedure": "[The procedure below names another cell line; the source lists this cell line under the same test.] as §1, with “tested. […]” for “tested.”\nas §3"}, "[7]": {"test_system": "A549 cells", "experiment": "Apoptosis (Cell Death Detection ELISA), A549", "format": "cell-based, human", "conditions": "50 nM, 48 hours, over mismatch control", "procedure": "as §1, §2\n(§4) For the apoptosis study, cells were analyzed using the Cell Death Detection ELISA^Plus kit (Roche Diagnostic GmBH, Mannheim, Germany) according to the manufacturer's directions. Typically, 10,000 cells were plated in 96-well tissue culture dishes for 2 hours before harvest and lysis. Each sample was analyzed in duplicate. ELISA reading was done using a MR700 plate reader (DYNEX Technology, Ashford, Middlesex, England) at 410 nm. The reference was set at 490 nm.\n[…] Similarly, A549 cells were treated with 20 nM of HDAC1 AS in combination with 20 nM of each of AS inhibitors against human HDAC2 to HDAC8. After 48 hour treatment, A549 cells were harvested and analyzed for apoptosis by ELISA as described previously. Apoptosis of A549 cells by AS inhibition was compared to that of cells treated with 1 uM TSA for 16 hours. […] The control oligo UMM had no effect on induction of apoptosis."}, "[8]": {"test_system": "T24 cells", "experiment": "Apoptosis (Cell Death Detection ELISA), T24", "format": "cell-based, human", "conditions": "50 nM, 48 hours, over mismatch control", "procedure": "as §1, §2, §4"}, "[9]": {"test_system": "HCT116 cells", "experiment": "Apoptosis (Cell Death Detection ELISA), HCT116", "format": "cell-based, human", "conditions": "50 nM, 48 hours, over mismatch control", "procedure": "as §1, with “tested. […]” for “tested.”\nFor the apoptosis study, cells were analyzed using the Cell Death Detection ELISA^Plus kit (Roche Diagnostic GmBH, Mannheim, Germany) according to the manufacturer's directions. […] Each sample was analyzed in duplicate. ELISA reading was done using a MR700 plate reader (DYNEX Technology, Ashford, Middlesex, England) at 410 nm. […]"}, "[10]": {"test_system": "MCF-7 cells", "experiment": "Apoptosis (Cell Death Detection ELISA), MCF-7", "format": "cell-based, human", "conditions": "50 nM, 48 hours, over mismatch control"}, "[11]": {"test_system": "MDAmb231 cells", "experiment": "Apoptosis (Cell Death Detection ELISA), MDAmb231", "format": "cell-based, human", "conditions": "50 nM, 48 hours, over mismatch control"}, "[12]": {"test_system": "A549 cells", "experiment": "Inhibition of agar colony formation, A549", "format": "cell-based, human", "conditions": "50 nM oligos for 48 hours, vs cells treated with lipofectin"}, "[13]": {"test_system": "MDAmb231 cells", "experiment": "Inhibition of agar colony formation, MDAmb231", "format": "cell-based, human", "conditions": "50 nM oligos for 48 hours, vs cells treated with lipofectin"}, "[14]": {"test_system": "human HDAC-1 RNA", "experiment": "HDAC-1 RNA expression screen in T24 cells, Northern blot", "format": "cell-based", "conditions": "100 nM, 24 hours", "procedure": "To identify antisense oligodeoxynucleotide (ODN) capable of inhibiting HDAC-1 expression in human cancer cells, eleven phosphorothioate ODNs containing sequences complementary to the 5′ or 3′ UTR of the human HDAC-1 gene (GenBank Accession No. U50079) were initially screened in T24 cells at 100 nM. Cells were harvested after 24 hours of treatment, and HDAC-1 RNA expression was analyzed by Northern blot analysis. […] HDAC-1 MM oligo was created as a control; compared to the antisense oligo, it has a 6-base mismatch."}}, "data": [{"substance": "5′-GAAACGTGAGGGACTCAGCA-3′ (chemistry not given here) [HD1 AS1]", "values": [{"measurement": "Growth Inhibition A549", "setting": "[1]", "result": "+ (“+” means >35% inhibition of cell growth by antisense oligos (50 nM, 48 hour) compared to that of cells treated with lipofectin)"}, {"measurement": "Growth Inhibition T24", "setting": "[2]", "result": "+ (“+” means >35% inhibition of cell growth by antisense oligos (50 nM, 48 hour) compared to that of cells treated with lipofectin)"}, {"measurement": "Growth Inhibition Du145", "setting": "[3]", "result": "+ (“+” means >35% inhibition of cell growth by antisense oligos (50 nM, 48 hour) compared to that of cells treated with lipofectin)"}, {"measurement": "Growth Inhibition MCF-7", "setting": "[4]", "result": "+ (“+” means >35% inhibition of cell growth by antisense oligos (50 nM, 48 hour) compared to that of cells treated with lipofectin)"}, {"measurement": "Growth Inhibition H446", "setting": "[5]", "result": "+ (“+” means >35% inhibition of cell growth by antisense oligos (50 nM, 48 hour) compared to that of cells treated with lipofectin)"}, {"measurement": "Growth Inhibition MDAmb 231", "setting": "[6]", "result": "+ (“+” means >35% inhibition of cell growth by antisense oligos (50 nM, 48 hour) compared to that of cells treated with lipofectin)"}, {"measurement": "Apoptosis A549", "setting": "[7]", "result": "+ (“+” means the induction of apoptosis at least 2 fold over mismatch control (50 nM, 48 hours))"}, {"measurement": "Apoptosis T24", "setting": "[8]", "result": "+ (“+” means the induction of apoptosis at least 2 fold over mismatch control (50 nM, 48 hours))"}, {"measurement": "Apoptosis HCT 116", "setting": "[9]", "result": "+ (“+” means the induction of apoptosis at least 2 fold over mismatch control (50 nM, 48 hours))"}, {"measurement": "Apoptosis MCF-7", "setting": "[10]", "result": "+ (“+” means the induction of apoptosis at least 2 fold over mismatch control (50 nM, 48 hours))"}, {"measurement": "Apoptosis MDAmb 231", "setting": "[11]", "result": "+ (“+” means the induction of apoptosis at least 2 fold over mismatch control (50 nM, 48 hours))"}, {"measurement": "inhibition of agar colony formation A549", "setting": "[12]", "result": "+ (“+” means >35% inhibition of agar colony formation of cells treated with 50 nM oligos for 48 hours compared to that of cells treated with lipofectin)"}, {"measurement": "inhibition of agar colony formation MDAmb 231", "setting": "[13]", "result": "+ (“+” means >35% inhibition of agar colony formation of cells treated with 50 nM oligos for 48 hours compared to that of cells treated with lipofectin)"}, {"measurement": "HDAC-1 RNA expression, screen", "setting": "[14]", "result": "antisense activity to human HDAC-1"}]}]}
